Source: article PMC10460389, “Design of 8-mer peptides that block Clostridioides difficile toxin A in intestinal cells” (Communications Biology, 2023)

Assays:
C. diff. infection = conditions: antibiotic treatment (metronidazole and vancomycin); cited from earlier work
From the text: Multiple therapeutic approaches have been developed to treat C. diff. infection. The standard practice is treatment with antibiotics (metronidazole and vancomycin), but in 20% of cases infection reoccurs. Exposure to these antibiotics alters the microbial community in the gut, facilitating colonization by C. diff[21].

TcdA GTD catalytic site = conditions: cited from earlier work
[1] = tested on: small intestinal (jejunum) cells exposed to TcdA; conditions: cited from earlier work
TcdA GTD = conditions: 0.5 μM UDP-Glucose-Fluorescein 15 min; vs no-TcdA-AF594 no-UDP-Glucose-Fluorescein control RP(-T -U) for SA1; two-tailed T-test
Method: For the bead-based assay, statistical analyses were performed using a two-tailed T-test in conjunction with the RP (-T) control. Significance was determined at p < 0.05. […] Approximately 40 beads were imaged for each sample, with images containing out-of-focus beads or bead aggregates being excluded. […] Each SPR sensor was used to run two samples across two separate channels, leading to a total of 14 measurements. However, one measurement was excluded due to the loss of a stable signal.

Compound | cases in which infection reoccurs (C. diff. infection) [%] | ΔGbinding (TcdA GTD catalytic site) | neutralization of TcdA in jejunum / small intestinal cells [1] | change in green fluorescence from center to halo (TcdA binding) region (TcdA GTD)
CN[C@H](CC(C)C)C(=O)N[C@H]1C(=O)N[C@@H](CC(N)=O)C(=O)N[C@H]2C(=O)N[C@H]3C(=O)N[C@H](C(=O)N[C@H](C(=O)O)c4cc(O)cc(O)c4-c4cc3ccc4O)[C@H](O)c3ccc(c(Cl)c3)Oc3cc2cc(c3O[C@@H]2O[C@H](CO)[C@@H](O)[C@H](O)[C@H]2O[C@H]2C[C@](C)(N)[C@H](O)[C@H](C)O2)Oc2ccc(cc2Cl)[C@H]1O [vancomycin] | 20 | – | – | –
DGWIQHYKHR [NPC, computationally designed 10-mer peptide from previous work] | – | -6.15 | neutralized toxin A in jejunum cells | –
Cc1ncc([N+](=O)[O-])n1CCO [metronidazole] | 20 | – | – | –
HEWGRRHN [SA7] | – | – | – | All peptides except SA7 showed a significant (p < 0.005) decrease in green fluorescence
GMFWQHRRHD [NPB, computationally designed 10-mer peptide from previous work] | – | -11.35 | neutralized toxin A in jejunum cells | –
